# Where a name gives a salt, the structure may show the parent alone.
# Biological target: T1, rhesus (Macacca Mulatta) H3 receptor (Macaca mulatta, UniProt Q865E1)
# T1 construct: pcDNA5/FRT/TO (Invitrogen) containing the rhesus monkey (Macacca Mulatta) 445 amino acid H3 receptor
# Experiment: Rhesus H3 radioligand binding assay ([3H]-Methylhistamine displacement, WGA SPA beads)
# Design: species or system rhesus monkey (Macacca Mulatta)
# Conditions: [3H]-Methylhistamine 2 nM, rhesus H3 membranes, 25° C., 1 hour; Cheng-Prusoff
# Experimental: Rhesus H3 membranes were prepared from the Flp-In T-REx 293 Cell Line (Invitrogen) stably transfected with pcDNA5/FRT/TO (Invitrogen) containing the rhesus monkey (Macacca Mulatta) 445 amino acid H3 receptor. (Genbank #AY231164). Stably transfected cultures were amplified in tissue culture flasks by standard tissue culture methods and induced to express rhesus H3 by exposure to 500 ng/ml tetracycline (Cellgro) for 24 hours. After induction, cells were dissociated from flasks utilizing Cell Stripper (Cellgro). Cells were centrifuged (1 K×g, 5 min) and pellet frozen in an ethanol-dry ice bath to disrupt cell membranes. Frozen cell pellet was re-suspended in 5 mM HEPES (pH 7.4, Invitrogen) at 10ml/1000 cm2 of harvested cells. The cell suspension was drawn through an 18 gauge needle (2-3×) followed by a 23 gauge needle (2-3×) to further disrupt cell membranes. The cell suspension was centrifuged (40K×g, 30 min). Cell membrane pellet was re-suspended in 5 mM HEPES (pH 7.4, Invitrogen) at a final protein concentration of 10 mg/ml. Rhesus H3 membranes were stored under liquid nitrogen prior to use in [3H]-Methylhistamine and GTPγS radioligand binding assays.
# Rhesus H3 radioligand binding assay was performed using rhesus H3 receptor membranes (prepared as described above), [3H]-Methylhistamine (Perkin Elmer) and WGA SPA beads (wheat germ agglutinin scintillation proximity assay) beads (Amersham). The assay was performed in 96-well Opti-Plates (Packard). Each reaction contained 50 μl rhesus H3 membranes (20-30 μg total protein), 50 μl WGA SPA beads (0.1 μg) and 50 μl of 83Ci/mmol [^3H]-Methylhistamine (final concentration 2 nM) and 50 μl of tested compound. The compounds of this invention and/or vehicle were diluted with binding buffer from 10 mM DMSO stocks. Assay plates were sealed with TopSeal (Perkin Elmer) and mixed on shaker (25° C., 1 hour). Assay plates were read on TopCount scintillation counter (Packard). Results were analyzed by Hill transformation and Ki values were determined by Cheng-Prusoff equation.
# T1 sequence (Q865E1 1-445): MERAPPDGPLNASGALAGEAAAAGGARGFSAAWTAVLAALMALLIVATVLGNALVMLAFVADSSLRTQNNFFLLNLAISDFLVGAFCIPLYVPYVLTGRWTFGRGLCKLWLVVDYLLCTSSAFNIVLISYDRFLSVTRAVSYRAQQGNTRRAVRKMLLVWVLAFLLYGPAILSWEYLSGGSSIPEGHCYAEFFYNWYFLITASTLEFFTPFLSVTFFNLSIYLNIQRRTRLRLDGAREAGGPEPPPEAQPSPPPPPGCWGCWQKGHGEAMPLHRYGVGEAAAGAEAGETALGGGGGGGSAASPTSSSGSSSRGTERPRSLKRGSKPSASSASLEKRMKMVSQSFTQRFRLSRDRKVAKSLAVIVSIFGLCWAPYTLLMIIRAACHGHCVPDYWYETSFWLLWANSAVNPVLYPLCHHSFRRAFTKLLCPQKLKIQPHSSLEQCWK
row,Structure (SMILES),Ki [nM]
1,"C[C@H]1CCCN1[C@H]1CCN(c2ccc(N3CCC4(CCCCC4)C3=O)cc2)C1 [Example 7, 2-[4-((2S,3′S)-2-Methyl-[1,3′]bipyrrolidinyl-1′-yl)-phenyl]-2-aza-spiro[4.5]decan-1-one]",6.44
2,"Cc1cc(N2CCC(N3CCC[C@@H]3C)CC2)ccc1N1CCC2(CCC(C(=O)O)CC2)C1=O (stereo partly drawn) [Example 5, 2-{2-Methyl-4-[4-((S)-2-methyl-pyrrolidin-1-yl)-piperidin-1-yl]-phenyl}-1-oxo-2-aza-spiro[4.5]decane-8-carboxylic acid]",58
3,"C[C@H]1CCCN1C1CCN(c2ccc(N3CCC4(CCCCC4)C3=O)c(N)c2)CC1 [Example 4, 2-{2-Amino-4-[4-((S)-2-methyl-pyrrolidin-1-yl)-piperidin-1-yl]-phenyl}-2-aza-spiro[4.5]decan-1-one trifluoro-acetate]",11.4
4,COc1cc(N2CC[C@H](N3CCC[C@@H]3C)C2)ccc1N1CCC2(CCCCC2)C1=O [Example 10],2.65
5,"Cc1cc(N2CCC(N3CCC[C@@H]3C)CC2)ccc1N1CCCC2(CCCC2)C1=O [Example 2, 7-{2-Methyl-4-[4-((S)-2-methyl-pyrrolidin-1-yl)-piperidin-1-yl]-phenyl}-7-aza-spiro[4.5]decan-6-one trifluoro-acetic acid salt]",12.7
6,"Cc1cc(N2CC[C@H](N3CCC[C@@H]3C)C2)ccc1N1CCC2(CCC(O)CC2)C1=O (single isomer, unassigned) [Example 11]",35
7,"C[C@H]1CCCN1[C@@H]1CCN(c2ccc(N3CCC4(CCCCC4)C3=O)c(N)c2)C1 [Example 6, 2-[2-Amino-4-((2S,3′R)-2-methyl-[1,3′]bipyrrolidinyl-1′-yl)-phenyl]-2-aza-spiro[4.5]decan-1-one trifluoro-acetic acid salt]",35.8
8,"Cc1cc(N2CCC(N3CCC[C@@H]3C)CC2)ccc1N1CCC2(CCC(O)CC2)C1=O (stereo partly drawn) [Example 3, 8-Hydroxy-2-{2-methyl-4-[4-((S)-2-methyl-pyrrolidin-1-yl)-piperidin-1-yl]-phenyl}-2-aza-spiro[4.5]decan-1-one]",30.7
9,"Cc1cc(N2CCC(N3CCC[C@@H]3C)CC2)ccc1N1CCC2(CCCCC2)C1=O [Example 1, 2-{2-Methyl-4-[4-((S)-2-methyl-pyrrolidin-1-yl)-piperidin-1-yl]-phenyl}-2-aza-spiro[4.5]decan-1-one trifluoroacetate]",0.477
10,"Cc1cc(N2CC[C@H](N3CCC[C@@H]3C)C2)ccc1N1CCC2(CCCCC2)C1=O [Example 8, 2-[2-Methyl-4-((2S,3′S)-2-methyl-[1,3]bipyrrolidinyl-1′-yl)-phenyl]-2-aza-spiro[4.5]decan-1-one]",10.6
11,"C[C@H]1CCCN1[C@H]1CCN(c2ccc(N3CCC4(CCCCC4)C3=O)c(F)c2)C1 [Example 9, 2-[2-Fluoro-4-((2S,3′S)-2-methyl-[1,3′]bipyrrolidinyl-1′-yl)-phenyl]-2-aza-spiro[4.5]decan-1-one]",41.6
